{"source": "paper PMC5159279", "about": "(Hypertension (Dallas, Tex. : 1979), 2016)", "key": {"[1]": {"test_system": "arterioles from adipose biopsies of patients with hypertension", "assay": "Human ex vivo vasoreactivity, phenylephrine cumulative dose response", "conditions": "cumulative dose response without HbαX"}, "[2]": {"test_system": "mice with AngII-induced hypertension", "assay": "Radiotelemetry blood pressure, AngII-induced hypertensive mice", "assay_type": "in vivo", "conditions": "AngII 1000 ng/kg/min by osmotic mini-pump; from a baseline of 110 mmHg"}, "[3]": {"test_system": "hemoglobin in red blood cells", "assay": "Red blood cell oxygen p50", "conditions": "fresh human blood; 5 minutes incubation; HbαX 30 μmol/L; n=3"}}}
{"molecule": "CNC[C@H](O)c1cccc(O)c1", "note": "[phenylephrine]", "values": [{"measurement": "responsiveness of human arterioles to PE", "setting": "[1]", "result": "responsive"}]}
{"molecule": "Angiotensin II [AngII]", "values": [{"measurement": "systolic blood pressure on AngII", "setting": "[2]", "result": "~ 170 mmHg"}]}
{"molecule": "FPYFSTKLTT [control peptide]", "values": [{"measurement": "oxygen p50 of hemoglobin in RBCs", "setting": "[3]", "result": "did not significantly change the oxygen p50"}]}
